Laboratory results published in patent publication US20210261512A1, “NOVEL COMPOUNDS” (INFLAZOME LIMITED, priority 2018, published 2021).

Legend:
[1] = PK, intravenous administration; format: in vivo; details: rat, plasma, male Sprague Dawley rats, dose about 1 mg/kg; for Vd: read-out: Vdss
Protocol: Pharmacokinetic parameters were determined in male Sprague Dawley rats (Vital River Laboratory Animal Technology Co Ltd, Beijing, China, 6-9 weeks old). Animals were maintained under a 12 h light/dark cycle. Animals had free access to food and water, except that orally dosed animals were food deprived overnight prior to the study.
For intravenous administration, compounds were formulated as a solution (in DMSO:water [10:90] or in DMSO:PBS [10:90]) in 2 mL/kg dosing volume and administered via tail vein. For oral administration, compounds were formulated as a solution (in 0.5% methylcellulose in water) in […] dosing volume and administered orally.
Serial blood samples (about 200 μL) were taken from each animal at each of 8 time-points post dose ([…], 0.25, 0.5, 1, 2, 4, 8 and 24 h). Samples were held on ice for no longer than 30 minutes before centrifugation (5,696 rpm (3,000 g) for 15 minutes) for plasma generation. Plasma was frozen on dry ice prior to bioanalysis. PK parameters were generated from LC-MS/MS data using Phoenix WinNonlin 6.3 software.

[2] = target: NLRP3 (Homo sapiens, UniProt Q96P20); assay: THP-1 cells pyroptosis assay; format: cell-based; parameters: Seed THP-1 cells (25,000 cells/well) containing 1.0 μg/ml LPS; host or cells: THP-1; details: LPS 1.0 μg/ml, nigericin 5 μM, resazurin readout, 10 μM top dose (Example 2: top dose of 30 μM)
Chain of NLRP3 (Q96P20 whole entry): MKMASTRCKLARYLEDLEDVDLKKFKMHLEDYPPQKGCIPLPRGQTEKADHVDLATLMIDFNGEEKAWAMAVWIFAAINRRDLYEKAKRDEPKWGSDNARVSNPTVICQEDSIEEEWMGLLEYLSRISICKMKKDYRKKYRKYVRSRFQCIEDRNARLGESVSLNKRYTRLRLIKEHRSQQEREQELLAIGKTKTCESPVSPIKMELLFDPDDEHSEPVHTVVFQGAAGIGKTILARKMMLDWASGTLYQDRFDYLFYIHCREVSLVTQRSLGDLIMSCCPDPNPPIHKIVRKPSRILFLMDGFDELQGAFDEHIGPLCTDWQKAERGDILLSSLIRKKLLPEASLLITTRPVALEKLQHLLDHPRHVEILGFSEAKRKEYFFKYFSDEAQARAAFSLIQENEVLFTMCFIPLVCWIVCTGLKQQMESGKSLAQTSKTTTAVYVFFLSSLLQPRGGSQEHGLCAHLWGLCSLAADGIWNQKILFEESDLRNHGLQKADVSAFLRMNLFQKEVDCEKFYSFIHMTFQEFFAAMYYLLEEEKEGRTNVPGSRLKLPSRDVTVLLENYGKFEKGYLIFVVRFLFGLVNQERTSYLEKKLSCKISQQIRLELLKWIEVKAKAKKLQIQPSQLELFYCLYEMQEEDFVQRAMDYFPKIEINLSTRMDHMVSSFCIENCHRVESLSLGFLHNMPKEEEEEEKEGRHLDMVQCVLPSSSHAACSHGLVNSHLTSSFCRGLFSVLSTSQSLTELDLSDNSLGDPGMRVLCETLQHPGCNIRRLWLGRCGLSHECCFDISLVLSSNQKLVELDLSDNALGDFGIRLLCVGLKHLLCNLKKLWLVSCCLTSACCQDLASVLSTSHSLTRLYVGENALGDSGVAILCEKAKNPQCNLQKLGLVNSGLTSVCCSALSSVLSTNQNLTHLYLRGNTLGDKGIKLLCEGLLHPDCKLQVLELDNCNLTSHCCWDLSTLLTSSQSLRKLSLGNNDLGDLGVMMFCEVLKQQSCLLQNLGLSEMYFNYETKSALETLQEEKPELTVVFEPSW
Outline: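 Pyroptosis induced by 5 μM nigericin (1 h) in LPS-primed (1 μg/ml) THP-1 cells, 25,000/well in serum-free RPMI, after 3 h compound pre-treatment (8 points, 10 μM top unless stated). Surviving cells measured with 100 μM resazurin, Ex 560/Em 590; IC50 via variable-slope 4-parameter regression.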

Compound | IC50 [2] [µM] | further results
O=S(=O)(CC1CCCN1)c1nnc(Nc2c3c(cc4c2CCC4)CCC3)[nH]1 (centres unmarked) [Example 62, N-(1,2,3,5,6,7-hexahydro-s-indacen-4-yl)-3-((pyrrolidin-2-ylmethyl)sulfonyl)-1H-1,2,4-triazol-5-amine] | ≤ 10 | –
O=S(=O)(c1cccnn1)c1n[nH]c(Nc2c3c(cc4c2CCC4)CCC3)n1 [Example 167, N-(1,2,3,5,6,7-hexahydro-s-indacen-4-yl)-3-(pyridazin-3-ylsulfonyl)-1H-1,2,4-triazol-5-amine] | ≤ 5 | –
COc1cc(-c2cc(F)cc(C(C)C)c2Cc2nnc(S(=O)(=O)c3ccccc3)[nH]2)ccn1 [Example 155, 4-(5-fluoro-3-isopropyl-2-((5-(phenylsulfonyl)-4H-1,2,4-triazol-3-yl)-methyl)phenyl)-2-methoxypyridine] | ≤ 10 | –
O=S(=O)(c1nnc(Nc2c3c(cc4c2CCC4)CCC3)[nH]1)C1CCOCC1 [Example 157, N-(1,2,3,5,6,7-hexahydro-s-indacen-4-yl)-5-((tetrahydro-2H-pyran-4-yl)sulfonyl)-4H-1,2,4-triazol-3-amine] | ≤ 10 | –
O=S(=O)(CCCO)c1nnc(Nc2c3c(cc4c2CCC4)CCC3)[nH]1 [Example 47, 3-((5-((1,2,3,5,6,7-hexahydro-s-indacen-4-yl)amino)-4H-1,2,4-triazol-3-yl)sulfonyl)propan-1-ol] | ≤ 5 | –
O=S(=O)(CC1CNCCO1)c1nnc(Nc2c3c(cc4c2CCC4)CCC3)[nH]1 (centres unmarked) [Example 57, N-(1,2,3,5,6,7-hexahydro-s-indacen-4-yl)-3-((morpholin-2-ylmethyl)sulfonyl)-1H-1,2,4-triazol-5-amine] | ≤ 10 | –
C[C@@H](CN(C)C)NS(=O)(=O)c1nnc(Nc2c3c(cc4c2CCC4)CCC3)[nH]1 [Example 106, (S)—N-(1-(dimethylamino)propan-2-yl)-5-((1,2,3,5,6,7-hexahydro-s-indacen-4-yl)amino)-4H-1,2,4-triazole-3-sulfonamide] | ≤ 10 | –
CCN(CC)CCCS(=O)(=O)c1nnc(Nc2c(-c3ccccc3)cc(F)c3c2CCC3)[nH]1 [Example 78, 5-((3-(diethylamino)propyl)sulfonyl)-N-(7-fluoro-5-phenyl-2,3-dihydro-1H-inden-4-yl)-4H-1,2,4-triazol-3-amine] | ≤ 10 | –
CNC(=O)CS(=O)(=O)c1nnc(Nc2c3c(cc4c2CCC4)CCC3)[nH]1 [Example 68, 2-((5-((1,2,3,5,6,7-hexahydro-s-indacen-4-yl)amino)-4H-1,2,4-triazol-3-yl)sulfonyl)-N-methylacetamide] | ≤ 5 | –
O=S(=O)(c1nnc(Nc2c3c(cc4c2CCC4)CCC3)[nH]1)C1CCCC(N2CCCC2)C1 (centres unmarked) [Example 194, N-(1,2,3,5,6,7-hexahydro-s-indacen-4-yl)-3-((3-(pyrrolidin-1-yl)cyclohexyl)sulfonyl)-1H-1,2,4-triazol-5-amine] | ≤ 10 | –
CC(C)c1cc(F)cc(C(C)C)c1Cc1nnc(S(=O)(=O)N2CCC(CN(C)C)C2)[nH]1 (centres unmarked) [Example 161, 1-(1-((5-(4-fluoro-2,6-diisopropylbenzyl)-4H-1,2,4-triazol-3-yl)-sulfonyl)pyrrolidin-3-yl)-N,N-dimethylmethanamine] | ≤ 5 | –
CN1CCC(NS(=O)(=O)c2nnc(Nc3c4c(cc5c3CCC5)CCC4)[nH]2)CC1 [Example 102, 5-((1,2,3,5,6,7-hexahydro-s-indacen-4-yl)amino)-N-(1-methylpiperidin-4-yl)-4H-1,2,4-triazole-3-sulfonamide] | ≤ 10 | –
CCN(CC)CCS(=O)(=O)Cc1nnc(Nc2c3c(cc4c2CCC4)CCC3)[nH]1 [Example 373, 5-(((2-(diethylamino)ethyl)sulfonyl)methyl)-N-(1,2,3,5,6,7-hexahydro-s-indacen-4-yl)-4H-1,2,4-triazol-3-amine] | ≤ 10 | –
O=S(=O)(CC1CCCO1)c1nnc(Nc2c3c(cc4c2CCC4)CCC3)[nH]1 (centres unmarked) [Example 67, N-(1,2,3,5,6,7-hexahydro-s-indacen-4-yl)-3-(((tetrahydrofuran-2-yl)methyl)sulfonyl)-1H-1,2,4-triazol-5-amine] | ≤ 10 | –

Further lines, with some results ahead:

IC50 [2] [µM] | Compound | further results
≤ 10 | CS(=O)(=O)c1nnc(Nc2c(-c3ccnc(OC4CCCOC4)c3)ccc3c2CCC3)[nH]1 (centres unmarked) [Example 236, 5-(methylsulfonyl)-N-(5-(2-((tetrahydro-2H-pyran-3-yl)oxy)pyridin-4-yl)-2,3-dihydro-1H-inden-4-yl)-4H-1,2,4-triazol-3-amine] | AUC [1]: 3160 ng·h/mL; clearance [1]: 5.28 mL/min/kg; half-life [1]: 53.5 min; Vd [1]: 0.149 L/kg
≤ 0.5 | CN1CCC2(C1)CN(S(=O)(=O)c1nnc(Nc3c(-c4ccnc(OC(F)F)c4)ccc4c3CCC4)[nH]1)C2 [Example 213, N-(5-(2-(difluoromethoxy)pyridin-4-yl)-2,3-dihydro-1H-inden-4-yl)-5-((6-methyl-2,6-diazaspiro[3.4]octan-2-yl)sulfonyl)-4H-1,2,4-triazol-3-amine] | AUC [1]: 186 ng·h/mL; clearance [1]: 90.6 mL/min/kg; half-life [1]: 43.8 min; Vd [1]: 4.21 L/kg
≤ 0.5 | CN1CCOCC12CCN(S(=O)(=O)c1nnc(Nc3c4c(cc5c3CCC5)CCC4)[nH]1)CC2 [Example 296, N-(1,2,3,5,6,7-hexahydro-s-indacen-4-yl)-5-((1-methyl-4-oxa-1,9-diazaspiro[5.5]undecan-9-yl)sulfonyl)-4H-1,2,4-triazol-3-amine] | AUC [1]: 315 ng·h/mL; clearance [1]: 52.9 mL/min/kg; half-life [1]: 35.4 min; Vd [1]: 1.7 L/kg
≤ 5 | COC(C)(C)C1CCN(S(=O)(=O)c2nnc(Nc3c4c(cc5c3CCC5)CCC4)[nH]2)C1 (centres unmarked) [Example 282, N-(1,2,3,5,6,7-hexahydro-s-indacen-4-yl)-5-((3-(2-methoxypropan-2-yl)pyrrolidin-1-yl)sulfonyl)-4H-1,2,4-triazol-3-amine] | –
≤ 10 | O=S(=O)(c1nnc(Nc2c3c(cc4c2CCC4)CCC3)[nH]1)N1CCC(F)(F)CC1 [Example 297, 5-((4,4-difluoropiperidin-1-yl)sulfonyl)-N-(1,2,3,5,6,7-hexahydro-s-indacen-4-yl)-4H-1,2,4-triazol-3-amine] | –
≤ 5 | O=S(=O)(c1cnn(C2CC2)c1)c1nnc(Nc2c3c(cc4c2CCC4)CCC3)[nH]1 [Example 193, 3-((1-cyclopropyl-H-pyrazol-4-yl)sulfonyl)-N-(1,2,3,5,6,7-hexahydro-s-indacen-4-yl)-1H-1,2,4-triazol-5-amine] | –
≤ 10 | COc1cc(-c2c(C)cccc2Nc2nnc(S(=O)(=O)N3CCC(N(C)C)CC3)[nH]2)ccn1 [Example 208, 1-((5-((2-(2-methoxypyridin-4-yl)-3-methylphenyl)amino)-4H-1,2,4-triazol-3-yl)sulfonyl)-N,N-dimethylpiperidin-4-amine] | –
≤ 10 | CS(=O)(=O)c1nnc(Nc2c(-c3ccnc(OCCO)c3)ccc3c2CCC3)[nH]1 [Example 238, 2-((4-(4-((5-(methylsulfonyl)-4H-1,2,4-triazol-3-yl)amino)-2,3-dihydro-1H-inden-5-yl)pyridin-2-yl)oxy)ethan-1-ol] | –
≤ 5 | COCC(C)Oc1cc(-c2ccc3c(c2Nc2nnc(S(C)(=O)=O)[nH]2)CCC3)ccn1 (centres unmarked) [Example 237, N-(5-(2-((1-methoxypropan-2-yl)oxy)pyridin-4-yl)-2,3-dihydro-1H-inden-4-yl)-5-(methylsulfonyl)-4H-1,2,4-triazol-3-amine] | –
≤ 5 | COCC(C)Oc1cc(-c2c(C)cc3c(c2Nc2nnc(S(C)(=O)=O)[nH]2)CCC3)ccn1 (centres unmarked) [Example 363, N-(5-(2-((1-methoxypropan-2-yl)oxy)-pyridin-4-yl)-6-methyl-2,3-dihydro-1H-inden-4-yl)-5-(methylsulfonyl)-4H-1,2,4-triazol-3-amine] | –
≤ 5 | O=S(=O)(c1cccc(OC(F)(F)F)c1)c1nnc(Nc2c3c(cc4c2CCC4)CCC3)[nH]1 [Example 367, N-(1,2,3,5,6,7-hexahydro-s-indacen-4-yl)-5-((3-(trifluoromethoxy)phenyl)-sulfonyl)-4H-1,2,4-triazol-3-amine] | –
≤ 5 | O=S(=O)(c1nnc(Nc2c3c(cc4c2CCC4)CCC3)[nH]1)N1CCC2(CCOC2)C1 (centres unmarked) [Example 314, 5-(2-oxa-7-azaspiro[4.4]nonan-7-ylsulfonyl)-N-(1,2,3,5,6,7-hexahydro-s-indacen-4-yl)-4H-1,2,4-triazol-3-amine] | –
≤ 5 | COc1cccc(S(=O)(=O)c2nnc(Nc3c4c(cc5c3CCC5)CCC4)[nH]2)c1 [Example 175, N-(1,2,3,5,6,7-hexahydro-s-indacen-4-yl)-5-((3-methoxyphenyl)sulfonyl)-4H-1,2,4-triazol-3-amine] | –
≤ 0.5 | N#Cc1ccccc1S(=O)(=O)c1nnc(Nc2c3c(cc4c2CCC4)CCC3)[nH]1 [Example 185, 2-((5-((1,2,3,5,6,7-hexahydro-s-indacen-4-yl)amino)-4H-1,2,4-triazol-3-yl)sulfonyl)benzonitrile] | –
≤ 5 | O=S(=O)(c1nnc(Nc2c3c(cc4c2CCC4)CCC3)[nH]1)N1CCC2(CCNC2)CC1 [Example 266, 5-((2,8-diazaspiro[4.5]decan-8-yl)sulfonyl)-N-(1,2,3,5,6,7-hexahydro-s-indacen-4-yl)-4H-1,2,4-triazol-3-amine] | –
